Assay results as given in paper PMC12670426 (Journal of Medicinal Chemistry, 2025).
Like-named read-outs stand apart in the source and are kept apart here. Each block holds one compound with its values, some of them ahead of it.

Tests used:
galectin CRD = target: galectin CRD; set-up: method as in not given; settings: endogenous ligand binding the galectin CRD; literature value, ref not given; cited from earlier work
Gal-1 [1] = test: Direct binding fluorescence polarization of the fluorescent probe, Gal-1; set-up: species or system human; settings: [probe] 100 nM, mean ± SD
Experimental: (§1) Fluorescence polarization measurements were performed at 25 °C using a Tecan Spark multiplate reader (Tecan, Switzerland) with excitation at 485 ± 20 nm and emission at 535 ± 20 nm in a 384-well black polystyrene microplate (Corning 4514, USA). Dissociation constants of the probe (K d ^*) were determined by fitting the binding data with a quadratic model for direct binding using the BindCurve package. Additional details on the model, probe concentrations, and fitting parameters are provided in the Supporting Information.
(§2) Fluorescence polarization
(§3) Direct binding was modeled by a quadratic model, which is written as […]
(§4) where r corresponds to the measured anisotropy, rmin corresponds to the anisotropy of the free probe (labeled ligand), and rmax corresponds to maximal anisotropy, which is achieved when all molecules of the probe are bound to the receptor. Kd∗ is the dissociation constant of the probe and [R] is the concentration of free receptor. [R] is determined by a quadratic equation […]
(§5) where [L∗]T is the total concentration of the probe and [R]T is the total concentration of the receptor. Using quadratic formula, the positive root is calculated as […]
(§6) Table S1. Calculated Kd∗ values, total concentrations of the fluorescent probe, and model asymptotes from direct binding experiments. […]
(§7) a K∗ values are expressed as mean ± SD from two independent experiments, each performed […]

Gal-3C [2] = target: T1, Gal-3C (Homo sapiens, UniProt P17931); test: Direct binding fluorescence polarization of the fluorescent probe, Gal-3C; settings: [probe] 5 nM, mean ± SD
T1 construct: only the C-terminal domain was used (Gal-3C); 6xHis tag with TEV protease site (N, cleaved yes); made in house; host or cells: BL21 Escherichia coli (pET-15b)
T1 sequence (P17931 118-248 limits assumed): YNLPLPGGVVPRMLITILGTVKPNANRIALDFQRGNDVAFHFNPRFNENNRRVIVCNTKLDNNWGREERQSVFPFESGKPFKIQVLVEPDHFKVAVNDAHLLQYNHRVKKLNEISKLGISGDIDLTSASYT
Experimental: as §1, §2, §3, §4, §5, §6, §7

[3] = tested on: LPS-stimulated macrophage-like THP1 cells (TNFα secretion); test: Anti-inflammatory potential: TNFα secretion in LPS-stimulated PMA-differentiated THP1 cells; format: cell-based, human; settings: (+)PMA THP1, 1 μg/mL LPS, 24 h, up to 300 μM
Experimental: Cells were differentiated overnight into macrophage-like phenotypes by treatment with 10 ng/mL PMA and subsequently stimulated with 1 μg/mL lipopolysaccharide (LPS; Invitrogen, Thermo Fisher Scientific) to induce a proinflammatory response. […] After 24 h of LPS and compound exposure, cell culture supernatants were collected and analyzed for TNFα levels using a bead-based multiplex immunoassay (ProcartaPlex Human Basic Kit and TNFα Human ProcartaPlex Simplex Kit, both Invitrogen, Thermo Fisher Scientific). Flow cytometry readout was used as previously described. TNFα concentrations were calculated using a standard curve generated in GraphPad Prism 10 (GraphPad Software, San Diego, CA). Cells or beads from screening assays prepared for flow cytometry were analyzed by the CytoFlex S instrument (Beckman Coulter). Data acquisition was performed using CytExpert software (v2.5, Beckman Coulter). Debris was excluded by forward and side scatter gating, followed by doublet exclusion. Data were analyzed using FlowJo software (v10, BD Biosciences).

Cytotoxicity assay, THP1 = format: cell-based; settings: human, THP1 cells, viability dye, flow cytometry
Experimental: (§8) To evaluate in vitro cytotoxicity and support its potential application in inflammatory and fibrotic disease models, the following panel of cell lines, representing the relevant biological systems, was used: HEK293, HepG2, THP1, Jurkat E6.1, and LX2. HEK293, HepG2, and Jurkat E6.1 cells were seeded at 400,000 cells/mL, THP1 cells at 500,000 cells/mL, and LX2 cells at 200,000 cells/mL in 96-well plates (cell culture-treated, VWR) in 100 μL/well. Cells were treated with the tested compounds in a serial dilution (300, 100, 33.3, 11.1, and 3.7 μM) for 24 h. Untreated cells served as negative controls to establish the baseline viability threshold. Cell viability was assessed using a viability dye (Zombie Violet Fixable Viability Kit, BioLegend) following the manufacturer’s instructions and analyzed by flow cytometry (see below).
(§9) Cells or beads from screening assays prepared for flow cytometry were analyzed by the CytoFlex S instrument (Beckman Coulter). Data acquisition was performed using CytExpert software (v2.5, Beckman Coulter). Debris was excluded by forward and side scatter gating, followed by doublet exclusion. Data were analyzed using FlowJo software (v10, BD Biosciences).

[4] = Microsomal stability assay, rat liver microsomes; format: in vitro ADME; settings: pooled liver microsomes, pH 7.4, rat liver microsomes 0.5 mg/mL, NADPH
Experimental: (§10) Microsomal stability was determined using 0.5 mg/mL of pooled human, mouse, or rat liver microsomes (Thermo Fisher Scientific) in 90 mM TRIS-Cl buffer (pH 7.4) containing 2 mM NADPH and 2 mM MgCl2. Test compounds (10 μM) were added, and the resulting mixture was incubated at 37 °C for 10, 60, 120, and 180 min. The reactions were terminated by the addition of four volumes of ice-cold methanol, followed by vigorous mixing. The samples were left at −20 °C for 30 min and then stored at 4 °C overnight. The next day, samples were centrifuged, and supernatants were diluted with four volumes of 30% methanol in water. Zero time points were prepared by adding ice-cold methanol to the mixture of compounds and cofactors prior to the addition of microsomes. The samples were then analyzed using the Echo-MS system (SCIEX) with MRM transition monitoring, except for compound 3af, which was analyzed by LC–MS/MS as described in the plasma stability assay.

[5] = Cytotoxicity assay, panel of five human cell lines; format: cell-based; settings: HEK293, HepG2, THP-1, Jurkat E6.1 and LX2 cells; summary in text across panel of five human cell lines
Experimental: as §8, §9

[6] = target: T2, intracellular Gal-3 in THP1 cells (Homo sapiens, UniProt P17931); test: Intracellular Gal-3 target engagement in THP1 cells (flow cytometry, MFI); format: cell-based; settings: 2 h
T2 construct: Untreated cells served as negative and baseline controls representing maximum intracellular Gal-3 levels; endogenous in cells; host or cells: THP1 (monocyte-like or PMA-differentiated macrophage-like)
T2 sequence (P17931 whole entry): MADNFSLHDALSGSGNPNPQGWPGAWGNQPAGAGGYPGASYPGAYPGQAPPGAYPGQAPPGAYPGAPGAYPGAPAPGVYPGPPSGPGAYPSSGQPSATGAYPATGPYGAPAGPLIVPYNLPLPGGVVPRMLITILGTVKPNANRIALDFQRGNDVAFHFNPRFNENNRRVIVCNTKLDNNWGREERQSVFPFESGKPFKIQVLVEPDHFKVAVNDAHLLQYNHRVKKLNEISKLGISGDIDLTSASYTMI
Experimental: THP1 cells were used to assess the binding of the tested compounds to Gal-3. Cells were either maintained in suspension as undifferentiated monocyte-like cells or differentiated into macrophage-like cells by overnight treatment with phorbol 12-myristate 13-acetate (PMA, Sigma-Aldrich) at a final concentration of 10 ng/mL. […] Untreated cells served as negative and baseline controls representing maximum intracellular Gal-3 levels. Cells were then harvested and intracellularly stained either with galectin-3 monoclonal antibody eF660 (Invitrogen, Thermo Fisher Scientific) or a relevant isotype antibody (Invitrogen, Thermo Fisher Scientific) for flow cytometric analyses (see below). A dose-dependent decrease in Gal-3 signal upon compound treatment was used to assess intracellular target engagement expressed as median fluorescent intensity (MFI).
as §9

Gal-3C [7] = settings: read-out: Kd (Gal-3C); previously reported inhibitor, Figure 1A; ref Galecto Biotech; cited from earlier work
[8] = Cytotoxicity assay, HEK293; format: cell-based; settings: human, HEK293 cells, viability dye, flow cytometry
Experimental: as §8, §9

[9] = Microsomal stability assay, human liver microsomes; format: in vitro ADME; settings: pooled liver microsomes, pH 7.4, human liver microsomes 0.5 mg/mL, NADPH
Experimental: as §10

Cytotoxicity assay, LX2 = format: cell-based; settings: human, LX2 cells, viability dye, flow cytometry
Experimental: as §8, §9

[10] = Microsomal stability assay, mouse liver microsomes; format: in vitro ADME; settings: pooled liver microsomes, pH 7.4, mouse liver microsomes 0.5 mg/mL, NADPH
Experimental: as §10

[11] = Plasma stability assay, rat plasma; format: in vitro ADME; settings: 37 °C
Experimental: (§11) Test compounds (10 μM) were incubated with mouse, rat, or human pooled plasma from 50 donors (Biowest) at 37 °C for 20, 60, and 120 min. Reactions were terminated by adding four volumes of ice-cold methanol, followed by vigorous mixing. Samples were kept at −20 °C for 30 min and then stored at 4 °C overnight. The next day, samples were centrifuged, and supernatants were diluted with four volumes of 30% methanol in water. Zero time points were prepared by adding ice-cold methanol to the compound prior to the addition of plasma. Samples were then analyzed on an Echo MS system (SCIEX) using multiple reaction monitoring (MRM). The only exception was compound 3af, which was analyzed by LC–MS/MS (SCIEX 6500 triple quadrupole) due to its weak ionization in Echo-MS.

[12] = Plasma stability assay, human plasma; format: in vitro ADME; settings: pooled plasma, 37 °C
Experimental: as §11

Gal-1 [13] = settings: previously reported inhibitor, Figure 1A; ref Galecto Biotech; cited from earlier work
[14] = Plasma stability assay, mouse plasma; format: in vitro ADME; settings: 37 °C
Experimental: as §11

[15] = Cytotoxicity assay, HepG2; format: cell-based; settings: human, HepG2 cells, viability dye, flow cytometry
Experimental: as §8, §9

[16] = Cytotoxicity assay, Jurkat E6.1; format: cell-based; settings: human, Jurkat E6.1 cells, viability dye, flow cytometry
Experimental: as §8, §9

SMILES: CC(=O)N[C@H]1C(O)O[C@H](CO)[C@@H](O[C@@H]2O[C@H](CO)[C@H](O)[C@H](O)[C@H]2O)[C@@H]1O (some centres unmarked) [LacNAc, N-acetyllactosamine]
- Kd (galectin CRD): ~100 µM

- Kd (Gal-1 [1]): 0.74 ± 0.009 µM
- Kd (Gal-3C [2]): 0.022 ± 0.002 µM
SMILES: O=C(NCc1cn([C@H]2[C@@H](O)[C@@H](CO)O[C@@H](S[C@@H]3O[C@H](CO)[C@H](O)[C@H](n4cc(-c5cccc(F)c5)nn4)[C@H]3O)[C@@H]2O)nn1)c1ccc2c(c1)C(=O)OC21c2ccc(O)cc2Oc2cc(O)ccc21 [fluorescent probe, 3-deoxy-3-[4-(fluorescein-5-yl-carbonylaminomethyl)-1H-1,2,3-triazol-1-yl]-β-D-galactopyranosyl-3-deoxy-3-[4-(3-fluorophenyl)-1H-1,2,3-triazol-1-yl]-1-thio-β-D-galactopyranoside]

SMILES: OC[C@H]1O[C@@H](S[C@@H]2O[C@H](CO)[C@H](O)[C@H](n3cc(-c4cccc(F)c4)nn3)[C@H]2O)[C@H](O)[C@@H](n2cc(-c3cccc(F)c3)nn2)[C@H]1O [GB0139, reference compound]
- LPS-induced TNFα secretion [3]: effectively reduced TNFα secretion
- CC50 at 24 h (Cytotoxicity assay, THP1): > 300 µM
- microsomal CLint at 10 μM [4]: < 2 µL/min/mg
- CC50 at 24 h [5]: > 300 µM
- intracellular Gal-3 signal (MFI), macrophage-like THP1 cells ([6]; (+)PMA differentiated THP1, 3.7–300 μM): reduced the Gal-3 signal
- intracellular Gal-3 signal (MFI), monocyte-like THP1 cells ([6]; (−)PMA undifferentiated THP1, 3.7–300 μM): minimal effect
- Kd (Gal-3C [7]): 0.014 µM
- CC50 at 24 h [8]: > 300 µM
- microsomal CLint at 10 μM [9]: 12 ± 6 µL/min/mg
- CC50 at 24 h (Cytotoxicity assay, LX2): > 300 µM
- microsomal CLint at 10 μM [10]: 6 ± 5 µL/min/mg
- remaining at 2 h, 10 μM [11]: 78 ± 8%
- remaining at 2 h, 10 μM [12]: 110 ± 5%
- Kd (Gal-1 [13]): 0.012 µM
- remaining at 2 h, 10 μM [14]: 68 ± 3%
- CC50 at 24 h [15]: > 300 µM
- CC50 at 24 h [16]: > 300 µM
